Results reported in patent US9758401B2, “Digestion of biosolids in wastewater” (BCR ENVIRONMENTAL CORPORATION, priority 2009, dated 2017).

Assays:
[1] = test system: anaerobic digester; assay: Methane production in anaerobic digestion of chlorine dioxide pretreated WAS; conditions: versus non-pretreated WAS, measured
Procedure: Treatment of non-digested wastewater sludge with chlorine dioxide to solubilized the sludge and make nutrients bio-available and then feeding this material into an established anaerobic digester once the chlorine dioxide residual has been reduced improves gas (methane) production in an anaerobic digester. A generally accepted estimate for methane production at 35° C. is 0.25 kg methane per kg COD consumed. One kmol of methane is equivalent with a mass of 16 kg. Per definition, the COD equivalent of 1 kmol of methane is the mass of the amount of oxygen required for complete oxidation according to the formula: CH4+2O2→CO2+2H2O The mass of the 2O2 is 2 kmol of oxygen or 64 kg. Thus 64 kg Oxygen Demand is equivalent with 16 kg of methane, or 1 kg of oxygen demand (COD) is equivalent with 16/64=0.25 kg methane.
This increase in soluble COD represents 10-11% of the total COD concentration of the sludge, and represents a 2000% increase in soluble COD. The inventors believe that the higher the s-COD the higher capacity for methane production. The resulting increase in methane production as a result of this enhancement of anaerobic digestion has been measured as a greater than 50% increase utilizing this method, and is expected to be in the range of 100% or more over non-pretreated WAS. […]

[2] = test system: fecal coliform; assay: Secondary sludge full-scale test: fecal coliform reduction by chlorine dioxide; type: cell-based; conditions: for Fecal coliform: secondary sludge, 10 minutes contact time
Procedure: Treatment of non-digested wastewater sludge with chlorine dioxide allows the material to meet Class B pathogen reduction requirements prior to digestion by reducing the fecal coliform concentrations to levels much lower than the Class B standard (<2,000,000 fecal coliform bacteria) with less than 15 minutes contact time. The resulting biosolids cake has no odor.
In this test, chlorine dioxide was generated on-site, and was injected (at varying concentrations) into a 100 gpm sludge flow passing through a 4 inch diameter pipe. The pipe length was sufficient to allow 10 minutes of contact time between the sludge and the chlorine dioxide prior to dewatering the material.

[3] = test system: Waste activated sludge (WAS); assay: Waste activated sludge solubilization by chlorine dioxide in digesters (soluble COD, NH4, PO4, volatile solids)
Procedure: Waste activated sludge (WAS) was obtained from a local municipal WWTP which removes cBOD only and uses a pure oxygen system. In order to achieve similar experiment conditions and be consistent with the previous pilot experiment, the solids concentration was adjusted to approximately 7 g/L. Three digesters were set up and treated with chlorine dioxide dosages of 100, 150 and 200 mg/L respectively. The digesters were operated for 24 hours. Samples were taken at time intervals of 10 min, 1 h, 6 h, 12 h and 24 h to represent different contact time.
This confirmed that chlorine dioxide contact time is the key factor for WAS solubilization. The increased soluble COD concentration can be expressed as 10-11% of TCOD which is quite significant. It was also observed that soluble COD concentration at contacting time of 6 hr was approximately 55-66% of the soluble COD at time 24 hrs. […] The increase of soluble COD corresponded to the volatile solids destruction of 4-6% with different chlorine dioxide treatment dosage.
This is considered insignificant. The PO4 increase was much higher and equaled 16 to 28.3 mg P/L after 24 h. Higher phosphorus than nitrogen release can be attributed to the chlorine dioxide treatment which breaks down the cell walls resulting in the release of unbound orthophosphate PO4—P. The nitrogen in the cells is in the form of organic nitrogen (amino acids) and enzymes are required to convert organic nitrogen to ammonia nitrogen. The low pH resulting from the chlorine dioxide treatment may have deactivated the enzyme activity, therefore no/insignificant NH4—N increase was detected.

[4] = chlorine dioxide 100-200 mg/L, 24 h

[O][Cl+][O-] [chlorine dioxide]
increase in methane production [1]: greater than 50% | fecal coliform concentrations after treatment (Class B standard) ([2]; non-digested wastewater sludge, less than 15 minutes contact time): < 2,000,000 fecal coliform bacteria | Fecal coliform ([2]; ClO2 dose rate 64 mg/L): 1,800 MPN/g | Fecal coliform ([2]; ClO2 dose rate 80 mg/L): BDL | Fecal coliform ([2]; ClO2 dose rate 96 mg/L): BDL | Fecal coliform ([2]; ClO2 dose rate 128 mg/L): BDL | Fecal coliform ([2]; ClO2 dose rate 160 mg/L): BDL* | soluble COD at contact time 6 hr as share of soluble COD at 24 hrs ([3]; chlorine dioxide 100-200 mg/L): 55-66% | increase in soluble COD [3, 4]: 2000% | increase in soluble COD as share of total COD (TCOD) [3, 4]: 10-11% | volatile solids destruction ([3]; different chlorine dioxide treatment dosage (100-200 mg/L)): 4-6%
